US9951056B2, “Substituted nicotinamide inhibitors of BTK and their preparation and use in the treatment of cancer, inflammation and autoimmune disease” (BEIJING INNOCARE PHARMA TECH CO., LTD., priority 2013, dated 2018)

Target: BTK (Homo sapiens (Human), UniProt Q06187)
Assay: ADP-Glo kinase biochemical assay, IC50 determination of BTK inhibitors
Conditions: ADP-Glo, ATP 50 uM; values given as bins
Experimental: Biological Properties: IC50 Determination of BTK Inhibitors in ADP-Glo Kinase Biochemical Assay
Those skilled in the art will appreciate that a variety of assay formats may be used to determine the activity of the compounds described herein.
ADP-Glo™ Kinase Assay (Cat. V9102, 10000 Tests), Components: • 1×50 ml ADP-Glo™ Reagent, • 1×100 ml Kinase Detection Buffer, • 1× Kinase Detection Substrate (Lyophilized), • 1×5 ml Ultra Pure ATP, 10 mM • 1×5 ml ADP, 10 mM
• Enzyme concentration: 8 ng/5 ul. • ATP concentration: 50 uM • Substrate (peptide) concentration: 0.2 mg/ml. • Reaction buffer composition: 40 mM Tris-HCl pH7.5, 10 mM MgCl2, 2 mM MnCl2, 0.1 mg/mL BSA, 0.05 mM DTT. • Test compound concentration: DMSO≤0.5%. Methods: Compound Dosage Gradient Solution Preparation: […]
1× and 2× assay buffer were made at first. BTK kinase was diluted with 1× assay buffer but substrate was diluted with 2× assay buffer. 1 ul of diluted compound was transferred into 384-well assay plate, and then 2.0 ul of enzyme solution was added, and spun at 2000 rpm for 1 min. This mixture was incubated at 24° C. for 30 mins. 2 ul of peptide substrate/ATP mixture was added into the assay plate to start the reaction. The mixture was mixed thoroughly and then the 384-well plate was spun and incubated at 24° C. for 60 mins. 5.0 ul of ADP-Glo Reagent was added to stop the kinase activity and deplete the ATP unconsumed, and the plate was mixed thoroughly and incubated at 24° C. for 40 min. Then, 10.0 ul of Kinase Detection reagent was added, and the plate was centrifuged and then kept at 24° C. for 30 min. The luminescence signal was read on Envision.
IC50 values of compounds were calculated from a 4-parameter fit using Equation (2): Y=Bottom+(TOP-Bottom)/(1+((C/X)^hillslope)) Equation (2)
In Equation 2, Y represents % inhibition, X is the log value of the test compound concentration. IC50 was the concentration of compound where half of maximal inhibition was achieved.
All data was analyzed with IDBS XLfit5 software (ID Business Solutions Ltd., UK).

Sequence of BTK (Q06187 whole entry): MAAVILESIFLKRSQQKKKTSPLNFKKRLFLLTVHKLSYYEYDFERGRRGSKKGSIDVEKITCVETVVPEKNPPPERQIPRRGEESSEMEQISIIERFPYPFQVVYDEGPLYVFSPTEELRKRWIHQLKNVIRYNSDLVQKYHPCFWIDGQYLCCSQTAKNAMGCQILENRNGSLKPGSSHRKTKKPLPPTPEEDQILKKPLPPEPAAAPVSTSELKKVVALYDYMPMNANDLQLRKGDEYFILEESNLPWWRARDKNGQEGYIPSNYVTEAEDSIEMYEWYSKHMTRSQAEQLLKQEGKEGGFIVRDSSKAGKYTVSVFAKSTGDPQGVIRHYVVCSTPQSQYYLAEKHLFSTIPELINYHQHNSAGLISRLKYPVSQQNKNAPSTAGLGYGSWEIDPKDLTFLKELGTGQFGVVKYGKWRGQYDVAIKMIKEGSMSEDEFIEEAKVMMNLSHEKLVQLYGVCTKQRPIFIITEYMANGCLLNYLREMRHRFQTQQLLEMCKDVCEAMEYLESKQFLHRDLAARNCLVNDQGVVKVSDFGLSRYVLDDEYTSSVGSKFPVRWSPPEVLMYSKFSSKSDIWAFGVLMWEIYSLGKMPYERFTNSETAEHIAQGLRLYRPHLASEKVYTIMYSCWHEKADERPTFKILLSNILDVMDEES

IC50 [nM] | Compound
< 500 | C=CC(=O)N1CCN(c2ccc(C(N)=O)c(-c3ccc(Oc4ccccc4)c(F)c3)n2)CC1 [Example 36, 6-(4-acryloylpiperazin-1-yl)-2-(3-fluoro-4-phenoxyphenyl)nicotinamide]
< 500 | C=CC(=O)N1CCN(c2ccc(C(N)=O)c(-c3ccc(Oc4ccc(F)cc4)cc3)n2)CC1 [Example 37, 6-(4-acryloylpiperazin-1-yl)-2-(4-(4-fluorophenoxy)phenyl)nicotinamide]
< 500 | C=CC(=O)N1CCN(c2ccc(C(N)=O)c(-c3ccc(Oc4ccccc4F)cc3)n2)CC1 [Example 38, 6-(4-acryloylpiperazin-1-yl)-2-(4-(2-fluorophenoxy)phenyl)nicotinamide]
< 500 | C=CC(=O)N1CCN(c2ccc(C(N)=O)c(-c3ccc(Oc4ccccc4)cc3F)n2)CC1 [Example 39, 6-(4-acryloylpiperazin-1-yl)-2-(2-fluoro-4-phenoxyphenyl)nicotinamide]
< 500 | C=CC(=O)N1CCCC(c2nc(-c3ccc(Oc4ccccc4)cc3)c(C(N)=O)s2)C1 (stereo not shown) [Example 40, 2-(1-acryloylpiperidin-3-yl)-4-(4-phenoxyphenyl)thiazole-5-carboxamide]
< 500 | C=CC(=O)N1CCC(c2nc(-c3ccc(Oc4ccccc4)cc3)c(C(N)=O)s2)C1 (stereo not shown) [Example 41, 2-(1-acryloylpyrrolidin-3-yl)-4-(4-phenoxyphenyl)thiazole-5-carboxamide]
< 500 | C=CC(=O)N1CCCC(c2nc(-c3ccc(Oc4ccccc4)cc3)c(C(N)=O)o2)C1 (stereo not shown) [Example 42, 2-(1-acryloylpiperidin-3-yl)-4-(4-phenoxyphenyl)oxazole-5-carboxamide]
< 500 | C=CC(=O)N1CCC(c2nc(-c3ccc(Oc4ccccc4)cc3)c(C(N)=O)o2)C1 (stereo not shown) [Example 43, 2-(1-acryloylpyrrolidin-3-yl)-4-(4-phenoxyphenyl)oxazole-5-carboxamide]
< 500 | C=CC(=O)N1CCC(c2nc(C(N)=O)c(-c3ccc(Oc4ccccc4)cc3)s2)C1 (stereo not shown) [Example 44, 2-(1-acryloylpyrrolidin-3-yl)-5-(4-phenoxyphenyl)thiazole-4-carboxamide]
< 500 | C=CC(=O)N1CCCC(c2nc(C(N)=O)c(-c3ccc(Oc4ccccc4)cc3)s2)C1 (stereo not shown) [Example 45, 2-(1-acryloylpiperidin-3-yl)-5-(4-phenoxyphenyl)thiazole-4-carboxamide]
< 500 | C=CC(=O)N1CCC(c2nc(-c3ccc(Oc4ccccc4)cc3)c(C(N)=O)o2)CC1 [Example 46, 2-(1-acryloylpiperidin-4-yl)-4-(4-phenoxyphenyl)oxazole-5-carboxamide]
< 500 | C=CC(=O)N1CCN(c2nc(-c3ccc(Oc4ccccc4)cc3)c(C(=O)NC)s2)CC1 [Example 47, 2-(4-acryloylpiperazin-1-yl)-N-methyl-4-(4-phenoxyphenyl)thiazole-5-carboxamide]
< 500 | C=CC(=O)N1CCC(c2nc(C(N)=O)c(-c3ccc(Oc4ccccc4)cc3)o2)C1 (stereo not shown) [Example 48, 2-(1-acryloylpyrrolidin-3-yl)-5-(4-phenoxyphenyl)oxazole-4-carboxamide]
< 500 | C=CC(=O)N1CCC(c2nc(C(N)=O)c(-c3ccc(Oc4ccccc4)cc3)s2)CC1 [Example 49, 2-(1-acryloylpiperidin-4-yl)-5-(4-phenoxyphenyl)thiazole-4-carboxamide]
≥ 1000 | N#CCC(=O)N1CC(n2cc(C(N)=O)c(-c3ccc(Oc4ccccc4)cc3)n2)C1 [Example 50, 1-(1-(2-cyanoacetyl)azetidin-3-yl)-3-(4-phenoxyphenyl)-1H-pyrazole-4-carboxamide]
< 500 | C=CC(=O)N1CCN(c2nc(-c3ccc(Oc4ccccc4)cc3)c(C(N)=O)s2)CC1 [Example 51, 2-(4-acryloylpiperazin-1-yl)-4-(4-phenoxyphenyl)thiazole-5-carboxamide]
< 500 | C=CC(=O)N1CCC(c2nc(-c3ccc(Oc4ccccc4)cc3)c(C(N)=O)s2)CC1 [Example 52, 2-(1-acryloylpiperidin-4-yl)-4-(4-phenoxyphenyl)thiazole-5-carboxamide]
≥ 1000 | N#C/C(=C\C1CC1)C(=O)N1CC(n2cc(C(N)=O)c(-c3ccc(Oc4ccccc4)cc3)n2)C1 [Example 53, (E)-1-(1-(2-cyano-3-cyclopropylacryloyl)azetidin-3-yl)-3-(4-phenoxyphenyl)-1H-pyrazole-4-carboxamide]
< 500 | C=CC(=O)N1CCCC(c2nc(C(N)=O)c(-c3ccc(Oc4ccccc4)cc3)o2)C1 (stereo not shown) [Example 54, 2-(1-acryloylpiperidin-3-yl)-5-(4-phenoxyphenyl)oxazole-4-carboxamide]
< 500 | C=CC(=O)N1CCC(c2ccc(C(N)=O)c(-c3ccc(Oc4ccccc4)cc3)c2)CC1 [Example 55, 5-(1-acryloylpiperidin-4-yl)-4′-phenoxybiphenyl-2-carboxamide]
≥ 1000 | C=CC(=O)N1CCC(c2cc(C(N)=O)nn2-c2ccc(Oc3ccccc3)cc2)CC1 [Example 56, 5-(1-acryloylpiperidin-4-yl)-1-(4-phenoxyphenyl)-1H-pyrazole-3-carboxamide]
< 500 | C=CC(=O)N1CCN(c2ccc(C(N)=O)c(-c3ccc(Oc4ccccc4)cc3)c2)CC1 [Example 57, 5-(4-acryloylpiperazin-1-yl)-4′-phenoxybiphenyl-2-carboxamide]
< 500 | C=CC(=O)N1CCC(c2ccc(C(N)=O)c(-c3ccc(C(O)c4ccccc4)cc3)n2)CC1 (stereo not shown) [Example 58, 6-(1-acryloylpiperidin-4-yl)-2-(4-(hydroxy(phenyl)methyl)phenyl)nicotinamide]
< 500 | C/C=C(\C#N)C(=O)N1CC(n2cc(C(N)=O)c(-c3ccc(Oc4ccccc4)cc3)n2)C1 [Example 59, (E)-1-(1-(2-cyanobut-2-enoyl)azetidin-3-yl)-3-(4-phenoxyphenyl)-1H-pyrazole-4-carboxamide]
< 500 | C=CC(=O)N1CCN(c2ccc(C(N)=O)c(-c3ccc(OC4CCC(F)(F)CC4)cc3)n2)CC1 [Example 60, 6-(4-acryloylpiperazin-1-yl)-2-(4-((4,4-difluorocyclohexyl)oxy)phenyl)nicotinamide]
< 500 | C=CC(=O)N1CCC(c2ccc(C(N)=O)c(-c3ccc(C(=O)Nc4ccccc4)cc3)n2)CC1 [Example 61, 6-(1-acryloylpiperidin-4-yl)-2-(4-(phenylcarbamoyl)phenyl)nicotinamide]
< 500 | C=CS(=O)(=O)N1CCN(c2ccc(C(N)=O)c(-c3ccc(Oc4ccccc4)cc3)n2)CC1 [Example 62, 2-(4-phenoxyphenyl)-6-(4-(vinylsulfonyl)piperazin-1-yl)nicotinamide]
< 500 | C=CS(=O)(=O)N1CCC(c2ccc(C(N)=O)c(-c3ccc(Oc4ccccc4)cc3)n2)CC1 [Example 63, 2-(4-phenoxyphenyl)-6-(1-(vinylsulfonyl)piperidin-4-yl)nicotinamide]

Compound | IC50 [nM]
C=CC(=O)N1CCN(c2ccc(C(N)=O)c(-c3ccc(Oc4ccccc4)cc3)n2)CC1 [Example 5, 6-(4-acryloylpiperazin-1-yl)-2-(4-phenoxyphenyl)nicotinamide] | < 500

Same assay, conditions: BTK, head-to-head assays

Compound | improvement in potency over Analogs 1 and 2 [×]
C=CC(=O)N1CCN(c2ccc(C(N)=O)c(-c3ccc(Oc4ccccc4)cc3)n2)CC1 [Example 5, 6-(4-acryloylpiperazin-1-yl)-2-(4-phenoxyphenyl)nicotinamide] | ~100

Target: SRC (Homo sapiens (Human), UniProt P12931)
Assay: kinase competition binding screen (liganded affinity beads, qPCR) at 1000 nM
Conditions: BTK versus SRC

Sequence of SRC (P12931 whole entry, looked up): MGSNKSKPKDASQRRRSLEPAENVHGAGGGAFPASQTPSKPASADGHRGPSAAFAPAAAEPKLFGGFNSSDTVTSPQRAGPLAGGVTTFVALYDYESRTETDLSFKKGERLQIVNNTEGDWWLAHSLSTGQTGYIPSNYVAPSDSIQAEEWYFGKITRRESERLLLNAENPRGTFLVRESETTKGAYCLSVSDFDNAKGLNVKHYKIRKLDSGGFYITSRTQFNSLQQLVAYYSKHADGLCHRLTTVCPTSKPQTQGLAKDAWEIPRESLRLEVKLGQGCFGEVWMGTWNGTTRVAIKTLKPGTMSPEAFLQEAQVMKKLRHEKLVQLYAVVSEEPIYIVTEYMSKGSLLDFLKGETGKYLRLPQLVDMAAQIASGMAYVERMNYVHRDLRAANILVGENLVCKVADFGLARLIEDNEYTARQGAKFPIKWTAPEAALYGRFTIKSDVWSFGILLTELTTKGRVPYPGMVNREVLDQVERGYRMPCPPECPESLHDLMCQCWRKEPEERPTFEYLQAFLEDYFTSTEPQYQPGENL

Compound | Fold Difference [x]
C=CC(=O)N1CCN(c2ccc(C(N)=O)c(-c3ccc(Oc4ccccc4)cc3)n2)CC1 [Example 5, 6-(4-acryloylpiperazin-1-yl)-2-(4-phenoxyphenyl)nicotinamide] | >100
